Data from patent publication US11478496B2, “Treatments of prostate cancer” (THE FLORIDA INTERNATIONAL UNIVERSITY BOARD OF TRUSTEES, priority 2020, dated 2022).

Tests used:
[1] = system: BER reconstituted with purified Pol β, FEN1, and LIG I; assay: Secondary gel-based BER assay reconstituted with purified core BER enzymes; type: biochemical; settings: 10 μM compound, THF substrate
Protocol: The secondary screening assay was performed as described below in the “Materials and Methods” section. Lane 1 represents the substrate only. Lane 2 indicates the reaction mixture with 5 nM APE1. Lanes 3 and 4 correspond to the reaction mixture with 5 nM APE1, 10 nM pol β, 10 nM FEN1 and 20 nM LIG I in the absence and presence of dimethylsulfoxide (DMSO). Lanes 5 through 19 correspond to the reaction mixture with 5 nM APE1, 10 nM pol β, 10 nM FEN1 and 20 nM LIG I in the presence of indicated compounds. The experiments were repeated at least three times. A representative gel is illustrated.
The hit compounds were subject to secondary assays to determine their ability to reduce the BER capacity when reconstituted with purified core BER enzymes, as well as their inhibitory effects on individual BER enzymes including pol FEN1 and LIG I. The effect of hit compounds on BER capacity and BER enzymes was examined using a denaturing sequencing gel-based assay. 10 μM hit compounds were incubated with 10 nM pol β, 10 nM FEN1 and 20 nM LIG I in BER reaction buffer containing 50 mM Tris-HCl (pH 7.5), 50 mM KCl, 0.1 mM EDTA, 0.1 mg/ml bovine serum albumin, and 0.01% Nonidet P-40 in the presence of 5 mM Mg^2+ and 2 mM ATP. The compounds were initially preincubated with a BER enzyme at varying concentrations for 1 h with rotation. This was followed by the addition of 25 nM ^32P-labeled substrate containing an abasic site, which was precut with 25 or 50 nM APEI. The reaction mixture (20 μL) was incubated at 37° C. for 30 min, and the reaction was terminated by 50 mM EDTA. Substrates, products, and unrepaired BER intermediates were separated by 15% urea-denaturing sequencing gel and detected by a Pharos FX Plus PhosphorImager (Bio-Rad, Hercules, Calif.).
Among the 26 identified compounds, nine were DNA intercalators or inhibitors of human DNA topoisomerases and were excluded from further studies. Thus, […] FDA approved drugs were selected for further testing. To further confirm the inhibitory effects of the lead compounds on BER, the effects of the compounds on BER reactions reconstituted with purified BER core enzymes were initially determined.

RWPE1 cells [2] = assay: RTCA impedance proliferation assay, RWPE1; type: cell-based; settings: 10 μM; serum free medium
Protocol: (6A-6B) PNT1A cells were plated onto xCelligence E-plates at 5×10^4 cells per well in media supplemented with 10% FBS (6A) or CSS (6B). Cells were allowed to attach overnight and treated with vehicle (DMSO) or 10 μM of indicated compounds. Cellular impedance was monitored continuously with 30 min intervals. (6C) RWPE1 cells were plated at 5×10^4 cells per well in serum free medium supplemented with Epidermal Growth Factor (EGF) and Bovine Pituitary Extract ([…]) onto E-plates and treated with 10 μM of indicated compounds as indicated. […] Proliferation assays were done using Roche DP Real Time Cell Analyzer (RTCA), as described by the manufacturer. Background impedance was established after incubating E-plates (Acea Biosciences, San Diego, Calif.) with 50 μL media at room temperature for 30 min and placed in RTCA. Cells were then seeded in 100 μL per well. Cells attached overnight and then treated. During attachment stage and after treatment impedance was measured every 30 min. Impedance is represented by cell index and is calculated as follows: CI=(Zi−Zo)/15Ω where Zi is impedance at an individual time point, and Zo is the background impedance. Average CI was calculated from four wells per treatment at each time point and normalized to the impedance immediately after compound addition.

RWPE1 cells [3] = assay: Cell Titer Glo cell viability assay, RWPE1; type: cell-based; settings: 10 μM; after 24 h and 48 h; serum free medium with EGF and BPE
Protocol: FIGS. 4A-4B show cellular toxicity of lead compounds in nonmalignant androgen independent prostate-derived cell lines. (4A) PNT1A cells were plated in a 96-well plate at 1×10^4 cell/well in the presence of FBS or CSS. Cells were allowed to attach overnight and were treated with either vehicle (DMSO) or 10 μM of indicated compound. At 24 and 48 h, cellular viability was compared using the Cell Titer Glo Luminescent Cell Viability kit. (4B) RWPE1 cells were plated in a 96-well plate at 1×10^4 cells/well using the specified serum free media. Cells were allowed to attach overnight and treated with 10 μM of indicated compound.
Cell viability was determined using the Cell Titer Glo Cell Viability Assay (Promega, Madison, Wis.), as recommended by manufacturer. All experiments were performed in quadruplicate.
Next, whether the same concentration of compounds decreases the viability of the AR negative and nonmalignant prostate derived cells, PNT1A and RWPE1, was tested.

Row | BER capacity and production of the BER repair product [1] | Structure (SMILES) | RWPE1 proliferation (RWPE1 cells [2]) | RWPE1 cell viability (RWPE1 cells [3])
1 | significantly reduced BER capacity | CC(C)(O/N=C(\C(=O)N[C@@H]1C(=O)N2C(C(=O)[O-])=C(C[n+]3ccccc3)CS[C@H]12)c1csc(N)n1)C(=O)O [ceftazidime] |  | 
2 | significantly reduced BER capacity | C=C1/C(=C\C=C2/CCC[C@]3(C)[C@@H]([C@H](C)/C=C/[C@@H](O)C4CC4)CC[C@@H]23)C[C@@H](O)C[C@@H]1O [calcipotriene] | slightly inhibited | significantly decreased
3 | significantly reduced BER capacity | CC(=O)Oc1cc2c(s1)CCN(C(C(=O)C1CC1)c1ccccc1F)C2 (stereo not shown) [prasugrel] |  | significantly decreased

Row | Structure (SMILES) | BER capacity and production of the BER repair product [1] | RWPE1 proliferation (RWPE1 cells [2]) | RWPE1 cell viability (RWPE1 cells [3])
4 | C[C@@H]1[C@H](O)[C@@H](C)/C=C/C=C/CC/C=C/C=C/C=C/C=C/C(O[C@H]2O[C@H](C)[C@@H](O)[C@H](N)[C@@H]2O)CC2O[C@](O)(CC(O)C(O)CCC(O)CC(O)CC(O)CC(=O)O[C@H]1C)CC(O)C2C(=O)O (stereo partly shown) [nystatin] | significantly reduced BER capacity |  | 
